Laboratory results reported in patent publication US8969554B2, “6-acyl-1,2,4-triazine-3,5-dione derivative and herbicides” (Kumiai Chemical Industry Co., Ltd., priority 2010, dated 2015).

Legend:
Type in all cases: in vivo
[1] = test system: Setaria viridis; test: Herbicidal activity by field foliage treatment (Test example 3); conditions: 1000 g effective component per hectare, day 14 after the treatment;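 also: index 0 to 10 in 10% steps of herbicidal effect with 10 meaning complete death and 0 below 10%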
How it was run: (§1)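 Potted field-soil plants grown 2 weeks in a greenhouse were sprayed over the whole foliage with diluted wettable powder at 1000 L/ha, delivering 1000 g active ingredient per hectare. Herbicidal effect scored by visual criteria 14 days after treatment.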

[2] = test system: Echinochloa crus-galli; test: Herbicidal activity by field soil treatment (Test example 2); parameters: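 index 0 to 10 in 10% steps of herbicidal effect with 10 meaning complete death and 0 below 10%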; conditions: 1000 g effective component per hectare, day 21 after the treatment
How it was run: (§2)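 Seeds were sown in field soil in 80 cm^2 pots and covered with soil. A water-diluted wettable powder was then sprayed onto the soil surface at 1000 liters per hectare, delivering 1000 g active ingredient per hectare. Plants grew in a greenhouse, and herbicidal effect was scored against set criteria 21 days after treatment.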

[3] = test system: A. retroflexus; test: as above; parameters: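 index 0 to 10 in 10% steps of herbicidal effect with 10 meaning complete death and 0 below 10%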; conditions: 1000 g effective component per hectare, day 21 after the treatment
How it was run: as §2

[4] = test system: Indian millet; test: as above; parameters: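 index 0 to 10 in 10% steps of herbicidal effect with 10 meaning complete death and 0 below 10%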; conditions: 1000 g effective component per hectare, day 21 after the treatment
How it was run: as §2

[5] = test system: Monochoria vaginalis; test: Herbicidal activity by paddy field soil treatment (Test Example 1); parameters: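 index 0 to 10 in 10% steps of herbicidal effect with 10 meaning complete death and 0 below 10%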; conditions: 1000 g of effective component per hectare, evaluated on day 21 after the treatment, criteria of Table 72
How it was run: (§3)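 Seeds were sown in puddled paddy soil in pots flooded to 3 cm water depth; the next day a water-diluted wettable powder was applied to the water surface at 1000 g active ingredient/ha. Plants were grown in a greenhouse and herbicidal effect scored by graded criteria on day 21 after treatment.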

[6] = test system: Echinochloa oryzicola; test: as above; parameters: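 index 0 to 10 in 10% steps of herbicidal effect with 10 meaning complete death and 0 below 10%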; conditions: 1000 g of effective component per hectare, evaluated on day 21 after the treatment, criteria of Table 72
How it was run: as §3

[7] = test system: Scirpus juncoides Rocxb.; test: as above; parameters: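 index 0 to 10 in 10% steps of herbicidal effect with 10 meaning complete death and 0 below 10%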; conditions: applied on water surface, 1000 g of effective component per hectare, day 21 after the treatment
How it was run: as §3

[8] = test system: A. retroflexus; test: Herbicidal activity by field foliage treatment (Test example 3); parameters: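 index 0 to 10 in 10% steps of herbicidal effect with 10 meaning complete death and 0 below 10%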; conditions: 1000 g effective component per hectare, day 14 after the treatment
How it was run: (§4)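 Plants were grown from seed in field soil in a greenhouse for 2 weeks, then sprayed over the whole foliage with a water-diluted wettable powder at 1000 L/ha spray volume, delivering 1000 g active ingredient per hectare. Herbicidal effect was scored on day 14 after treatment.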

[9] = test system: Indian millet; test: as above; parameters: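 index 0 to 10 in 10% steps of herbicidal effect with 10 meaning complete death and 0 below 10%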; conditions: 1000 g effective component per hectare, day 14 after the treatment
How it was run: as §4

[10] = test system: Echinochloa crus-galli; test: as above; parameters: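 index 0 to 10 in 10% steps of herbicidal effect with 10 meaning complete death and 0 below 10%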; conditions: 1000 g effective component per hectare, day 14 after the treatment
How it was run: as §1

[11] = test system: foxtail; test: Herbicidal activity by field soil treatment (Test example 2); conditions: 1000 g effective component per hectare, day 21 after the treatment;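 also: index 0 to 10 in 10% steps of herbicidal effect with 10 meaning complete death and 0 below 10%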
How it was run: as §2

## Cn1nc(C(=O)C2=C(O)CCCC2=O)c(=O)n(-c2c(Cl)cccc2Cl)c1=O [I-86]
[1]
  herbicidal effect index, Setaria viridis: 9
[2]
  herbicidal effect index, Echinochloa crus-galli: 10
[3]
  herbicidal effect index, Amaranthus retroflexus: 10
[4]
  herbicidal effect index, Abutilon theophrasti: 9
[5]
  Herbicidal effects index number, Monochoria vaginalis: 10
[6]
  Herbicidal effects index number, Echinochloa oryzicola: 10
[7]
  herbicidal effect index, S. juncoides Rocxb.: 10
[8]
  herbicidal effect index, Amaranthus retroflexus: 10
[9]
  herbicidal effect index, Abutilon theophrasti: 10
[10]
  herbicidal effect index, Echinochloa crus-galli: 9
[11]
  herbicidal effect index, Setaria viridis: 9

## Cc1cccc(-n2c(=O)c(C(=O)C3=C(O)CCCC3=O)nn(C)c2=O)c1C [I-89]
[1]
  herbicidal effect index, Setaria viridis: 10
[2]
  herbicidal effect index, Echinochloa crus-galli: 9
[3]
  herbicidal effect index, Amaranthus retroflexus: 10
[4]
  herbicidal effect index, Abutilon theophrasti: 10
[5]
  Herbicidal effects index number, Monochoria vaginalis: 10
[6]
  Herbicidal effects index number, Echinochloa oryzicola: 10
[7]
  herbicidal effect index, S. juncoides Rocxb.: 10
[8]
  herbicidal effect index, Amaranthus retroflexus: 10
[9]
  herbicidal effect index, Abutilon theophrasti: 10
[10]
  herbicidal effect index, Echinochloa crus-galli: 9
[11]
  herbicidal effect index, Setaria viridis: 8

## Cc1ccc(C)c(-n2c(=O)c(C(=O)C3=C(O)CCCC3=O)nn(C)c2=O)c1 [I-91]
[1]
  herbicidal effect index, Setaria viridis: 10
[2]
  herbicidal effect index, Echinochloa crus-galli: 9
[3]
  herbicidal effect index, Amaranthus retroflexus: 10
[4]
  herbicidal effect index, Abutilon theophrasti: 10
[5]
  Herbicidal effects index number, Monochoria vaginalis: 10
[6]
  Herbicidal effects index number, Echinochloa oryzicola: 10
[7]
  herbicidal effect index, S. juncoides Rocxb.: 10
[8]
  herbicidal effect index, Amaranthus retroflexus: 10
[9]
  herbicidal effect index, Abutilon theophrasti: 10
[10]
  herbicidal effect index, Echinochloa crus-galli: 9
[11]
  herbicidal effect index, Setaria viridis: 10

## Cc1cccc(C)c1-n1c(=O)c(C(=O)C2=C(O)CCCC2=O)nn(C)c1=O [I-92]
[1]
  herbicidal effect index, Setaria viridis: 10
[2]
  herbicidal effect index, Echinochloa crus-galli: 9
[3]
  herbicidal effect index, Amaranthus retroflexus: 10
[4]
  herbicidal effect index, Abutilon theophrasti: 10
[5]
  Herbicidal effects index number, Monochoria vaginalis: 10
[6]
  Herbicidal effects index number, Echinochloa oryzicola: 10
[7]
  herbicidal effect index, S. juncoides Rocxb.: 10
[8]
  herbicidal effect index, Amaranthus retroflexus: 10
[9]
  herbicidal effect index, Abutilon theophrasti: 10
[10]
  herbicidal effect index, Echinochloa crus-galli: 10
[11]
  herbicidal effect index, Setaria viridis: 9

## COc1ccc(-n2c(=O)c(C(=O)C3=C(O)CCCC3=O)nn(C)c2=O)cc1OC [I-93]
[1]
  herbicidal effect index, Setaria viridis: 9
[2]
  herbicidal effect index, Echinochloa crus-galli: 7
[3]
  herbicidal effect index, Amaranthus retroflexus: 10
[4]
  herbicidal effect index, Abutilon theophrasti: 10
[5]
  Herbicidal effects index number, Monochoria vaginalis: 10
[6]
  Herbicidal effects index number, Echinochloa oryzicola: 8
[7]
  herbicidal effect index, S. juncoides Rocxb.: 10
[8]
  herbicidal effect index, Amaranthus retroflexus: 10
[9]
  herbicidal effect index, Abutilon theophrasti: 10
[10]
  herbicidal effect index, Echinochloa crus-galli: 9
[11]
  herbicidal effect index, Setaria viridis: 6

## Cc1ccc(-n2c(=O)c(C(=O)C3=C(O)CCCC3=O)nn(C)c2=O)cc1F [I-105]
[1]
  herbicidal effect index, Setaria viridis: 7
[2]
  herbicidal effect index, Echinochloa crus-galli: 9
[3]
  herbicidal effect index, Amaranthus retroflexus: 10
[4]
  herbicidal effect index, Abutilon theophrasti: 9
[5]
  Herbicidal effects index number, Monochoria vaginalis: 10
[6]
  Herbicidal effects index number, Echinochloa oryzicola: 10
[7]
  herbicidal effect index, S. juncoides Rocxb.: 10
[8]
  herbicidal effect index, Amaranthus retroflexus: 10
[9]
  herbicidal effect index, Abutilon theophrasti: 10
[10]
  herbicidal effect index, Echinochloa crus-galli: 10
[11]
  herbicidal effect index, Setaria viridis: 7

## Cc1ccc(F)c(-n2c(=O)c(C(=O)C3=C(O)CCCC3=O)nn(C)c2=O)c1 [I-109]
[1]
  herbicidal effect index, Setaria viridis: 7
[2]
  herbicidal effect index, Echinochloa crus-galli: 9
[3]
  herbicidal effect index, Amaranthus retroflexus: 10
[4]
  herbicidal effect index, Abutilon theophrasti: 10
[5]
  Herbicidal effects index number, Monochoria vaginalis: 10
[6]
  Herbicidal effects index number, Echinochloa oryzicola: 10
[7]
  herbicidal effect index, S. juncoides Rocxb.: 10
[8]
  herbicidal effect index, Amaranthus retroflexus: 9
[9]
  herbicidal effect index, Abutilon theophrasti: 9
[10]
  herbicidal effect index, Echinochloa crus-galli: 10
[11]
  herbicidal effect index, Setaria viridis: 6

## Cc1c(F)cccc1-n1c(=O)c(C(=O)C2=C(O)CCCC2=O)nn(C)c1=O [I-116]
[1]
  herbicidal effect index, Setaria viridis: 9
[2]
  herbicidal effect index, Echinochloa crus-galli: 10
[3]
  herbicidal effect index, Amaranthus retroflexus: 10
[4]
  herbicidal effect index, Abutilon theophrasti: 10
[5]
  Herbicidal effects index number, Monochoria vaginalis: 10
[6]
  Herbicidal effects index number, Echinochloa oryzicola: 10
[7]
  herbicidal effect index, S. juncoides Rocxb.: 10
[8]
  herbicidal effect index, Amaranthus retroflexus: 8
[9]
  herbicidal effect index, Abutilon theophrasti: 9
[10]
  herbicidal effect index, Echinochloa crus-galli: 9
[11]
  herbicidal effect index, Setaria viridis: 9

## Cc1cc(F)ccc1-n1c(=O)c(C(=O)C2=C(O)CCCC2=O)nn(C)c1=O [I-117]
[1]
  herbicidal effect index, Setaria viridis: 9
[2]
  herbicidal effect index, Echinochloa crus-galli: 10
[3]
  herbicidal effect index, Amaranthus retroflexus: 10
[4]
  herbicidal effect index, Abutilon theophrasti: 10
[5]
  Herbicidal effects index number, Monochoria vaginalis: 10
[6]
  Herbicidal effects index number, Echinochloa oryzicola: 10
[7]
  herbicidal effect index, S. juncoides Rocxb.: 10
[8]
  herbicidal effect index, Amaranthus retroflexus: 8
[9]
  herbicidal effect index, Abutilon theophrasti: 9
[10]
  herbicidal effect index, Echinochloa crus-galli: 9
[11]
  herbicidal effect index, Setaria viridis: 7

## Cc1ccc(F)cc1-n1c(=O)c(C(=O)C2=C(O)CCCC2=O)nn(C)c1=O [I-118]
[1]
  herbicidal effect index, Setaria viridis: 10
[2]
  herbicidal effect index, Echinochloa crus-galli: 10
[3]
  herbicidal effect index, Amaranthus retroflexus: 10
[4]
  herbicidal effect index, Abutilon theophrasti: 9
[5]
  Herbicidal effects index number, Monochoria vaginalis: 10
[6]
  Herbicidal effects index number, Echinochloa oryzicola: 10
[7]
  herbicidal effect index, S. juncoides Rocxb.: 10
[8]
  herbicidal effect index, Amaranthus retroflexus: 10
[9]
  herbicidal effect index, Abutilon theophrasti: 10
[10]
  herbicidal effect index, Echinochloa crus-galli: 9
[11]
  herbicidal effect index, Setaria viridis: 9

## Cc1cccc(-n2c(=O)c(C(=O)C3=C(O)CCCC3=O)nn(C)c2=O)c1Cl [I-127]
[1]
  herbicidal effect index, Setaria viridis: 10
[2]
  herbicidal effect index, Echinochloa crus-galli: 10
[3]
  herbicidal effect index, Amaranthus retroflexus: 10
[4]
  herbicidal effect index, Abutilon theophrasti: 10
[5]
  Herbicidal effects index number, Monochoria vaginalis: 10
[6]
  Herbicidal effects index number, Echinochloa oryzicola: 10
[7]
  herbicidal effect index, S. juncoides Rocxb.: 10
[8]
  herbicidal effect index, Amaranthus retroflexus: 10
[9]
  herbicidal effect index, Abutilon theophrasti: 9
[10]
  herbicidal effect index, Echinochloa crus-galli: 10
[11]
  herbicidal effect index, Setaria viridis: 8

## Cc1ccc(-n2c(=O)c(C(=O)C3=C(O)CCCC3=O)nn(C)c2=O)c(Cl)c1 [I-128]
[1]
  herbicidal effect index, Setaria viridis: 10
[2]
  herbicidal effect index, Echinochloa crus-galli: 8
[3]
  herbicidal effect index, Amaranthus retroflexus: 10
[4]
  herbicidal effect index, Abutilon theophrasti: 10
[5]
  Herbicidal effects index number, Monochoria vaginalis: 9
[6]
  Herbicidal effects index number, Echinochloa oryzicola: 8
[7]
  herbicidal effect index, S. juncoides Rocxb.: 10
[8]
  herbicidal effect index, Amaranthus retroflexus: 10
[9]
  herbicidal effect index, Abutilon theophrasti: 10
[10]
  herbicidal effect index, Echinochloa crus-galli: 9
[11]
  herbicidal effect index, Setaria viridis: 9

## Cc1ccc(Cl)c(-n2c(=O)c(C(=O)C3=C(O)CCCC3=O)nn(C)c2=O)c1 [I-129]
[1]
  herbicidal effect index, Setaria viridis: 9
[2]
  herbicidal effect index, Echinochloa crus-galli: 9
[3]
  herbicidal effect index, Amaranthus retroflexus: 10
[4]
  herbicidal effect index, Abutilon theophrasti: 10
[5]
  Herbicidal effects index number, Monochoria vaginalis: 10
[6]
  Herbicidal effects index number, Echinochloa oryzicola: 10
[7]
  herbicidal effect index, S. juncoides Rocxb.: 10
[8]
  herbicidal effect index, Amaranthus retroflexus: 10
[9]
  herbicidal effect index, Abutilon theophrasti: 9
[10]
  herbicidal effect index, Echinochloa crus-galli: 10
[11]
  herbicidal effect index, Setaria viridis: 10

## COc1ccc(Cl)cc1-n1c(=O)c(C(=O)C2=C(O)CCCC2=O)nn(C)c1=O [I-134]
[1]
  herbicidal effect index, Setaria viridis: 10
[2]
  herbicidal effect index, Echinochloa crus-galli: 10
[3]
  herbicidal effect index, Amaranthus retroflexus: 10
[4]
  herbicidal effect index, Abutilon theophrasti: 10
[5]
  Herbicidal effects index number, Monochoria vaginalis: 10
[6]
  Herbicidal effects index number, Echinochloa oryzicola: 10
[7]
  herbicidal effect index, S. juncoides Rocxb.: 10
[8]
  herbicidal effect index, Amaranthus retroflexus: 10
[9]
  herbicidal effect index, Abutilon theophrasti: 10
[10]
  herbicidal effect index, Echinochloa crus-galli: 10
[11]
  herbicidal effect index, Setaria viridis: 10

## Cc1cc(Cl)ccc1-n1c(=O)c(C(=O)C2=C(O)CCCC2=O)nn(C)c1=O [I-137]
[1]
  herbicidal effect index, Setaria viridis: 10
[2]
  herbicidal effect index, Echinochloa crus-galli: 10
[3]
  herbicidal effect index, Amaranthus retroflexus: 10
[4]
  herbicidal effect index, Abutilon theophrasti: 10
[5]
  Herbicidal effects index number, Monochoria vaginalis: 10
[6]
  Herbicidal effects index number, Echinochloa oryzicola: 10
[7]
  herbicidal effect index, S. juncoides Rocxb.: 10
[8]
  herbicidal effect index, Amaranthus retroflexus: 10
[9]
  herbicidal effect index, Abutilon theophrasti: 10
[10]
  herbicidal effect index, Echinochloa crus-galli: 10
[11]
  herbicidal effect index, Setaria viridis: 9
